Experimental data reported in patent publication US10259810B2, “N-sulfonylated pyrazolo[3,4-b]pyridin-6-carboxamides and method of use” (AbbVie S.à.r.l., priority 2015, dated 2019).
Read-outs that look alike come from different tables or passages of the source.

Target: T1, ΔF508-CFTR (Homo sapiens, UniProt P13569, DEL508-508)
T1 construct: host or cells: CFBE41o-, doxycycline-inducible
Experiment: CFTR cell surface levels using HRP-tagged ΔF508-CFTR expressing CFBE cells, in the presence of a co-corrector
Format: cell-based
Text: Measuring CFTR Cell Surface Levels Using HRP-Tagged ΔF508-CFTR Expressing CFBE Cells
The HRP-tagged ΔF508-CFTR cell assay measures the expression of CFTR-ΔF508 at the plasma membrane. CFTR-ΔF508 has a folding defect leading to absence of protein at the plasma membrane. This assay is used to evaluate the capacity of compounds to increase the expression of CFTR-ΔF508 at the plasma membrane. The CFTR-ΔF508 is tagged with HRP (horse radish peroxidase enzyme) within the ECL4 (Extracellular loop 4) of CFTR (Phuan, P.-W. et al. Synergy-based small-molecule screen using a human lung epithelial cell line yields ΔF508-CFTR correctors that augment VX-809 maximal efficacy. Mol. Pharmacol. 86, 42-51 (2014)). When HRP-tagged ΔF508-CFTR is present at the plasma membrane, the HRP enzyme activity can be measured. The amount of CFTR-ΔF508 that can be rescued to the plasma membrane is correlated with the amount of functional enzyme that can be measured.
There are several ways to measure the capacity of compounds to rescue CFTR-ΔF508 to the plasma membrane; either compounds are evaluated on their own and the impact on plasma membrane levels is measured or compounds are evaluated in combination with a co-corrector, i.e. a compound that rescues CFTR-ΔF508 to the plasma membrane but rescue can be enhanced by addition of compounds due to a complementary mode of action.
Activity of Compounds in Combination with Co-Corrector:
For this purpose doxycycline-inducible ΔF508-CFTR-HRP expressing CFBE4lo− cells (obtained from Gergely Lukacs, McGill University) were maintained in MEM (Minimum Essential Medium, Gibco; 31095) supplemented with 10% fetal bovine serum (Hyclone; SV30160.03) under puromycin (3 μg/mL) and G418 selection (0.2 mg/mL). For compound testing, cells were seeded at 4000 cells/well in white 384-well plates (Greiner; 781080) in 50 μL of medium containing 0.5 μg/mL doxycycline and incubated for 68 hours at 37° C., 5% CO2. On day four, 10 μL of test compounds diluted in PBS (phosphate buffered saline) were added to the plates at a final DMSO concentration of 0.1%. In order to measure compound synergy with a co-corrector, 3 μM co-corrector (3-[(2R,4R)-4-({[1-(2,2-difluoro-1,3-benzodioxol-5-yl)cyclopropyl]carbonyl}amino)-7-methoxy-3,4-dihydro-2H-chromen-2-yl]benzoic acid) was added along with test compounds. All compound plates contained negative controls (DMSO) and positive controls (3 μM co-corrector). Cell plates were incubated at 33° C., 5% CO2 for 20 hours. On day five, the cells were washed five times with phosphate-buffered saline, and HRP activity was assayed by the addition of 50 μL/well of HRP substrate (SuperSignal™ West Pico Chemiluminescent Substrate, Thermo Scientific; 34080). After incubation for 15 minutes in the dark, the chemiluminescence was measured using a plate reader (EnVision®, Perkin Elmer). Raw data were normalized to percentage activity values using the equation: 100×(Sample−Negative control)/(Positive control−Negative Control).

[1] = HRP-tagged ΔF508-CFTR CFBE cells, in the presence of 3 μM co-corrector
[2] = HRP-tagged ΔF508-CFTR CFBE cells, in the presence of 3 μM co-corrector, read-out: EC50

T1 sequence (P13569 with tags, fused parts or gaps DEL508-508): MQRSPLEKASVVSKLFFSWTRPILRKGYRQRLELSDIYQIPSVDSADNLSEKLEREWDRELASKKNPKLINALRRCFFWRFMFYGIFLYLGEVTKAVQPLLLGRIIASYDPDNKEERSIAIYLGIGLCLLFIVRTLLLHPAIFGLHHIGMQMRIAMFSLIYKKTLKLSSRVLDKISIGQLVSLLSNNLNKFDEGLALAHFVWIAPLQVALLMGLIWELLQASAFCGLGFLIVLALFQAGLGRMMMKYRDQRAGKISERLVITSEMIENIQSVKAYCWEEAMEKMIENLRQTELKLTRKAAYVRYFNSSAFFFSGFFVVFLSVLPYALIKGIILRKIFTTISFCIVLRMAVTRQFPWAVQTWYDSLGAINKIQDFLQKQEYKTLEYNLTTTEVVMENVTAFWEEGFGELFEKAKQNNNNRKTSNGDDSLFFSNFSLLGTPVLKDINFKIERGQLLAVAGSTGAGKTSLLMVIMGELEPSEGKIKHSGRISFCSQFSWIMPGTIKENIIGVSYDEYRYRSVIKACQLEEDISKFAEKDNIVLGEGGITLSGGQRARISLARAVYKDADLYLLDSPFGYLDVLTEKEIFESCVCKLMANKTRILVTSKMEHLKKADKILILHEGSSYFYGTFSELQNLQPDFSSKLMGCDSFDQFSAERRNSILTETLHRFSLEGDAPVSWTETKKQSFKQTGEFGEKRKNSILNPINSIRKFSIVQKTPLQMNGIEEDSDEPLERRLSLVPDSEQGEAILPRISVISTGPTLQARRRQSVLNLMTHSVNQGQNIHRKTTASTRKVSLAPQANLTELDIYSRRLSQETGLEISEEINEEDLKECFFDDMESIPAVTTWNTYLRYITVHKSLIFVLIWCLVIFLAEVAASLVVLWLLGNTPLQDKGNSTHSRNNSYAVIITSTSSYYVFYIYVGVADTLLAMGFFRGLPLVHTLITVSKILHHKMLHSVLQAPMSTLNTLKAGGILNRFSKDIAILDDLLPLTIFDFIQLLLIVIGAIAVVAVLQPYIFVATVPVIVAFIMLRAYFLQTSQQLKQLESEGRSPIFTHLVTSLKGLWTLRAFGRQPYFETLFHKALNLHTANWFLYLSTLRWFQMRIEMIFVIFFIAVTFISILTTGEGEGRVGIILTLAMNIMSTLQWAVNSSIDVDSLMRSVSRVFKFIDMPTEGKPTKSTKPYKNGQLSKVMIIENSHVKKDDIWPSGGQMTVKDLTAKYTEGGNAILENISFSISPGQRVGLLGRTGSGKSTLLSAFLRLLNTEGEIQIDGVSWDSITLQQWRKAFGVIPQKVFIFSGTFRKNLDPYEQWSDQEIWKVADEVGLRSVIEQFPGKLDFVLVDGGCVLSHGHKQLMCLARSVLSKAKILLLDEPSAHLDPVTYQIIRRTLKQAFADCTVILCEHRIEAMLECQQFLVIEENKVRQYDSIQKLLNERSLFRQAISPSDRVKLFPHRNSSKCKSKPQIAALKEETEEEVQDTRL

Compound	% Activation [1] [%]	EC50 [2] [nM]	EC50 [nM]
Cc1nn(-c2ccccc2)c2nc(C(=O)NS(C)(=O)=O)cc(-c3ccc(N4CCOCC4)cc3)c12 [Compound 1, N-(methanesulfonyl)-3-methyl-4-[4-(morpholin-4-yl)phenyl]-1-phenyl-1H-pyrazolo[3,4-b]pyridine-6-carboxamide]	297.2	1190	
CCS(=O)(=O)NC(=O)c1cc(-c2ccc(N3CCOCC3)cc2)c2c(C)nn(-c3ccccc3)c2n1 [Compound 5, N-(ethanesulfonyl)-3-methyl-4-[4-(morpholin-4-yl)phenyl]-1-phenyl-1H-pyrazolo[3,4-b]pyridine-6-carboxamide]	362.75	372	
COCC1CCN(c2cc(C(=O)NS(=O)(=O)CCC(=O)OC)nc3c2c(C2CCC2)nn3-c2ccccc2)CC1 [Compound 288, methyl 3-({3-cyclobutyl-4-[4-(methoxymethyl)piperidin-1-yl]-1-phenyl-1H-pyrazolo[3,4-b]pyridine-6-carbonyl}sulfamoyl)propanoate]	566.4	74.3	
COCC1CCN(c2cc(C(=O)NS(=O)(=O)CCC(=O)O)nc3c2c(C2CCC2)nn3-c2ccccc2)CC1 [Compound 289, 3-({3-cyclobutyl-4-[4-(methoxymethyl)piperidin-1-yl]-1-phenyl-1H-pyrazolo[3,4-b]pyridine-6-carbonyl}sulfamoyl)propanoic Acid]	366.4	3330	
COCCN(C)c1cc(C(=O)NS(C)(=O)=O)nc2c1c(C(C)C)nn2-c1ccc(F)cc1 [Compound 301, 1-(4-fluorophenyl)-N-(methanesulfonyl)-4-[(2-methoxyethyl)(methyl)amino]-3-(propan-2-yl)-1H-pyrazolo[3,4-b]pyridine-6-carboxamide]	376.6	1140	
COCC1CCN(c2cc(C(=O)NS(=O)(=O)CCCN3CCC3)nc3c2c(C(C)C)nn3-c2ccc(F)cc2)CC1 [Compound 302, N-[3-(azetidin-1-yl)propane-1-sulfonyl]-1-(4-fluorophenyl)-4-[4-(methoxymethyl)piperidin-1-yl]-3-(propan-2-yl)-1H-pyrazolo[3,4-b]pyridine-6-carboxamide]	401.45	1800	
CC(C)c1nn(-c2ccc(F)cc2)c2nc(C(=O)NS(C)(=O)=O)cc(OCCC3CCCCN3C)c12 (stereo not shown) [Compound 305, 1-(4-fluorophenyl)-N-(methanesulfonyl)-4-[2-(1-methylpiperidin-2-yl)ethoxy]-3-(propan-2-yl)-1H-pyrazolo[3,4-b]pyridine-6-carboxamide]	267	2440	
CC(=O)N1CCC(F)(COc2cc(C(=O)NS(C)(=O)=O)nc3c2c(C(C)C)nn3-c2ccc(F)cc2)CC1 [Compound 308, 4-[(1-acetyl-4-fluoropiperidin-4-yl)methoxy]-1-(4-fluorophenyl)-N-(methanesulfonyl)-3-(propan-2-yl)-1H-pyrazolo[3,4-b]pyridine-6-carboxamide]	328.85	2490	
COCC(COC)Oc1cc(C(=O)NS(C)(=O)=O)nc2c1c(C(C)C)nn2-c1ccc(F)cc1 [Compound 311, 4-[(1,3-dimethoxypropan-2-yl)oxy]-1-(4-fluorophenyl)-N-(methanesulfonyl)-3-(propan-2-yl)-1H-pyrazolo[3,4-b]pyridine-6-carboxamide]	241.35	1060	
CC(C)c1nn(-c2ccc(F)cc2)c2nc(C(=O)NS(C)(=O)=O)cc(OCC3COCCO3)c12 (stereo not shown) [Compound 312, 4-[(1,4-dioxan-2-yl)methoxy]-1-(4-fluorophenyl)-N-(methanesulfonyl)-3-(propan-2-yl)-1H-pyrazolo[3,4-b]pyridine-6-carboxamide]	291.5	1880	
CC(C)c1nn(-c2ccc(F)cc2)c2nc(C(=O)NS(C)(=O)=O)cc(OCCOC3COC3)c12 [Compound 313, 1-(4-fluorophenyl)-N-(methanesulfonyl)-4-{2-[(oxetan-3-yl)oxy]ethoxy}-3-(propan-2-yl)-1H-pyrazolo[3,4-b]pyridine-6-carboxamide]	319.75	1750	
CS(=O)(=O)NC(=O)c1cc(OCCCN2CCCCC2)c2c(C3CCC3)nn(-c3ccccc3)c2n1 [Compound 314, 3-cyclobutyl-N-(methanesulfonyl)-1-phenyl-4-[3-(piperidin-1-yl)propoxy]-1H-pyrazolo[3,4-b]pyridine-6-carboxamide]	375.8	693	
CC(=O)N1CCC(COc2cc(C(=O)NS(C)(=O)=O)nc3c2c(C(C)C)nn3-c2ccc(F)cc2)CC1 [Compound 321, 4-[(1-acetylpiperidin-4-yl)methoxy]-1-(4-fluorophenyl)-N-(methanesulfonyl)-3-(propan-2-yl)-1H-pyrazolo[3,4-b]pyridine-6-carboxamide]	314.37	497	
COCC(COC)Oc1cc(C(=O)NS(C)(=O)=O)nc2c1c(C1CCC1)nn2-c1ccccc1 [Compound 324, 3-cyclobutyl-4-[(1,3-dimethoxypropan-2-yl)oxy]-N-(methanesulfonyl)-1-phenyl-1H-pyrazolo[3,4-b]pyridine-6-carboxamide]	259.7	1640	
CC(=O)N1CC[C@@H]2CN(c3cc(C(=O)NS(=O)(=O)CCCN4CCOCC4)nc4c3c(C3CCC3)nn4-c3ccccc3)CC[C@@H]21 [Compound 332, 4-[(3aR,7aS)-1-acetyloctahydro-5H-pyrrolo[3,2-c]pyridin-5-yl]-3-cyclobutyl-N-[3-(morpholin-4-yl)propane-1-sulfonyl]-1-phenyl-1H-pyrazolo[3,4-b]pyridine-6-carboxamide]	448.25		624
CC(C)c1nn(-c2ccc(F)cc2)c2nc(C(=O)NS(C)(=O)=O)cc(N3CCC4(CC3)CN(C)C(=O)O4)c12 [Compound 338, 1-(4-fluorophenyl)-N-(methanesulfonyl)-4-(3-methyl-2-oxo-1-oxa-3,8-diazaspiro[4.5]decan-8-yl)-3-(propan-2-yl)-1H-pyrazolo[3,4-b]pyridine-6-carboxamide]	344.25	946	
CC(C)c1nn(-c2ccc(F)cc2)c2nc(C(=O)NS(C)(=O)=O)cc(N3CCC4(CC3)NC(=O)NC4=O)c12 [Compound 341, 4-(2,4-dioxo-1,3,8-triazaspiro[4.5]decan-8-yl)-1-(4-fluorophenyl)-N-(methanesulfonyl)-3-(propan-2-yl)-1H-pyrazolo[3,4-b]pyridine-6-carboxamide]	165.4	3330	
CCOCC1(F)CCN(c2cc(C(=O)NS(C)(=O)=O)nc3c2c(C(C)C)nn3-c2ccc(F)cc2)CC1 [Compound 342, 4-[4-(ethoxymethyl)-4-fluoropiperidin-1-yl]-1-(4-fluorophenyl)-N-(methanesulfonyl)-3-(propan-2-yl)-1H-pyrazolo[3,4-b]pyridine-6-carboxamide]	336.5	207	
COCCOCC1(F)CCN(c2cc(C(=O)NS(C)(=O)=O)nc3c2c(C(C)C)nn3-c2ccc(F)cc2)CC1 [Compound 343, 4-{4-fluoro-4-[(2-methoxyethoxy)methyl]piperidin-1-yl}-1-(4-fluorophenyl)-N-(methanesulfonyl)-3-(propan-2-yl)-1H-pyrazolo[3,4-b]pyridine-6-carboxamide]	356.9	566	
CC(C)c1nn(-c2ccc(F)cc2)c2nc(C(=O)NS(C)(=O)=O)cc(N3CC[C@@H](O)[C@H](F)C3)c12 [Compound 344, 4-[(3R,4R)-3-fluoro-4-hydroxypiperidin-1-yl]-1-(4-fluorophenyl)-N-(methanesulfonyl)-3-(propan-2-yl)-1H-pyrazolo[3,4-b]pyridine-6-carboxamide]	374.5	1060	
